Results reported in patent publication US9376725B1, “Methods of screening for compounds for treating muscular dystrophy using human ALPHA7 integrin mRNA translation regulation” (PTC Therapeutics, Inc., priority 2007, dated 2016).

Columns and labels:
mIGF1 mRNA = assay: fLuc reporter gene assay, mIGF1 5′-UTR and 3′-UTR stable cell line; assay type: cell-based, human; details: 7.5 μM test concentration, 24 hours, vs 0.5% DMSO, luciferase luminescence, stable 293H or RD cells
Description: (§1) As shown in the following examples, compounds that modulate the expression of proteins (e.g., mIGF1, ITGA7, or UTRN) have been identified or validated and have the potential to treat MD, or a form thereof. Stable muscle (RD) or kidney (293H) cell lines expressing the firefly luciferase (fLuc) reporter gene flanked by the 5′-UTR and 3′-UTR of mIGF1, ITGA7, or UTRN mRNA were constructed and used to identify or validate compounds able to specifically increase expression of a reporter gene via nucleic acid constructs comprising at least the 5′-UTR and 3′-UTR of mIGF1, ITGA7 or UTRN and to increase expression of endogenous mIGF1, ITGA7 or UTRN protein.
(§2) A high-level expression vector, pcDNA™3.1/Hygro (Invitrogen Corp., Carlsbad, Calif.) was used for preparing the constructs comprising the luciferase gene flanked by any of the 5′-UTR and 3′-UTR, the 5′-UTR or the 3′-UTR of mIGF1, ITGA7, and UTRN mRNA. In a pcDNA™3.1/Hygro vector, the UTRs and restriction sites normally associated with cloning and/or expressing a gene of interest or reporter gene were removed or replaced. For each construct containing 5′ UTR sequences, the 5′ UTR sequences with a start codon were cloned into the vector using the appropriate restriction sites.
(§3) Stable 293H and RD cell lines containing the firefly luciferase (fLuc) gene flanked by mIGF1, ITGA7, or UTRN 5′-UTR and 3′-UTR were cultured in DMEM medium supplemented with 10% FBS and 200 μg/mL hygromycin in Fisher T175 flasks. The cells were passaged every 4 days at 1:10 dilution. Cultures were kept in a 37° C. and 5% CO2 incubator. The cells were scaled-up three days before performing the assay. Two confluent T175 flasks were split into twenty T175 flasks (1:10 dilution). Cells were harvested from each confluent flask by removing all of the media and adding 4 mL of warmed trypsin to dislodge the cells. After the cells were dislodged, 16 mL of selective media was added for a final volume of 20 mL. The cells were expanded by adding 2 mL of the harvested cells into ten new T175 flasks plus 25 ml, of selective media. The twenty new flasks were placed into the 37° C., 5% CO2 incubator. On the day the assay was performed, the media was removed from the flasks and 3 mL of warmed trypsin was added to dislodge the cells. After the cells were dislodged, 10 mL of nonselective media was added to the flask. This was repeated for all twenty flasks and combined into one flask. 100 μL of the above cell culture plus 100 μL of Trypan Blue stain was counted on a hemocytometer. 38 μL of cells (approximately 263 cells/4) were plated in the presence of 2 μL of a compound to be tested (at final concentration of 7.5 μM with 0.5% DMSO).
(§4) The firefly luciferase substrate used was Luc Lite Plus Packard #6016969. Luciferase activity was immediately assayed using a ViewLux Imaging system (Perkin Elmer).
(§5) The screening assay was performed by preparing plates containing test compounds and controls, including wells that contained only vehicle or a high inhibitor concentration and wells that provided an 8-point dose response curve of puromycin, a non-specific standard control inhibitor. The cells were grown overnight in the presence of compounds or controls at 37° C. in 5% CO2. Compounds were screened once for percent inhibition at a 7.5 μM test concentration. After 24 hours, the amount of luminescence was determined using a ViewLux Imaging system (Perkin Elmer).
(§6) The results for compounds shown in the following tables indicate that the compounds of the present invention enhance post-transcriptional expression of a nucleic acid construct comprising a reporter gene operably linked to any of the 5′-UTR and 3′-UTR, the 5′-UTR or the 3′-UTR of the target mIGF1 mRNA (Table 1), ITGA7 mRNA (Table 2), or UTRN mRNA (Table 3). […]

ITGA7 mRNA = assay: fLuc reporter gene assay, ITGA7 5′-UTR and 3′-UTR stable cell line; assay type: cell-based, human; details: 7.5 μM test concentration, 24 hours, vs 0.5% DMSO, luciferase luminescence, stable 293H or RD cells
Description: as §1, §2, §3, §4, §5, §6

UTRN mRNA = assay: fLuc reporter gene assay, UTRN 5′-UTR and 3′-UTR stable cell line; assay type: cell-based, human; details: 7.5 μM test concentration, 24 hours, vs 0.5% DMSO, luciferase luminescence, stable 293H or RD cells
Description: as §1, §2, §3, §4, §5, §6

[1] = CellTiter-Glo cytotoxicity assay, U937; assay type: cell-based; details: human, U937 cells (monocyte cell line); U937, relatively sensitive cell line
Description: To evaluate cytotoxicity of the compounds in the 293H and RD cell lines, the CellTiter-Glo assay (Promega) is utilized. CellTiter-Glo determines the number of viable cells in culture based on quantification of the ATP present, which signals the presence of metabolically active cells. A reduction in cellular ATP is indicative of a cytotoxic or cytostatic effect. Doxorubicin, a known cytotoxic compound, is used to address the sensitivity of the tested cell line. For relatively sensitive cell lines, such as U937 (a human monocyte cell line), the CC50 of doxorubicin ranges from 4 to 10 nM.

[2] = CellTiter-Glo cytotoxicity assay, Huh7; assay type: cell-based; details: human, Huh7 cells (hepatoblastoma cell line); Huh7, intermediate level of sensitivity
dystrophin [3] = details: mouse model; results could not be replicated; cited from earlier work
dystrophin [4] = details: human clinical trials; cited from earlier work

## Nc1ccc(Sc2cc(Cl)nc(N)n2)cc1 [Cpd 1, 4-(4-aminophenylthio)-6-chloropyrimidin-2-amine]
mIGF1 mRNA
  mIGF1, fold increase compared to negative control: ** (two stars indicate a greater than one-fold and up to two-fold increase in target mRNA)
ITGA7 mRNA
  ITGa7, fold increase compared to negative control: ** (two stars indicate a greater than one-fold and up to two-fold increase in target mRNA)
UTRN mRNA
  UTRN, fold increase compared to negative control: ** (two stars indicate a greater than one-fold and up to two-fold increase in target mRNA)

## CN(C)c1ccc(-c2nc3cc([N+](=O)[O-])ccc3[nH]2)cc1 [Cpd 2, N,N-dimethyl-4-(5-nitro-1H-benzo[d]imidazol-2-yl)aniline]
mIGF1 mRNA
  mIGF1, fold increase compared to negative control: ** (two stars indicate a greater than one-fold and up to two-fold increase in target mRNA)
ITGA7 mRNA
  ITGa7, fold increase compared to negative control: **** (four stars indicate a greater than three-fold and up to four-fold increase in target mRNA)
UTRN mRNA
  UTRN, fold increase compared to negative control: *** (three stars indicate a greater than two-fold and up to three-fold increase in target mRNA)

## CCCc1cc(Cl)n2c(nc3ccccc32)c1C#N [Cpd 3, 1-chloro-3-propyl-benzoimidazo[1,2-a]pyridine-4-carbonitrile]
mIGF1 mRNA
  mIGF1, fold increase compared to negative control: * (one star indicates less than one-fold increase in target mRNA)
ITGA7 mRNA
  ITGa7, fold increase compared to negative control: * (one star indicates less than one-fold increase in target mRNA)
UTRN mRNA
  UTRN, fold increase compared to negative control: ** (two stars indicate a greater than one-fold and up to two-fold increase in target mRNA)

## Oc1cccc(-c2nc3ccc4ccccc4c3c3c2CCC3)c1 [Cpd 4, 3-(2,3-dihydro-1H-benzo[f]cyclopenta[c]quinolin-4-yl)phenol]
mIGF1 mRNA
  mIGF1, fold increase compared to negative control: *** (three stars indicate a greater than two-fold and up to three-fold increase in target mRNA)
ITGA7 mRNA
  ITGa7, fold increase compared to negative control: *** (three stars indicate a greater than two-fold and up to three-fold increase in target mRNA)
UTRN mRNA
  UTRN, fold increase compared to negative control: ** (two stars indicate a greater than one-fold and up to two-fold increase in target mRNA)

## CCOc1ccc(C(=O)NC(=S)Nc2ccc(-c3nc4ccccc4s3)cc2)cc1[N+](=O)[O-] [Cpd 5, N-(4-(benzo[d]thiazol-2-yl)phenylcarbamothioyl)-4-ethoxy-3-nitrobenzamide]
mIGF1 mRNA
  mIGF1, fold increase compared to negative control: ** (two stars indicate a greater than one-fold and up to two-fold increase in target mRNA)
ITGA7 mRNA
  ITGa7, fold increase compared to negative control: *** (three stars indicate a greater than two-fold and up to three-fold increase in target mRNA)
UTRN mRNA
  UTRN, fold increase compared to negative control: *** (three stars indicate a greater than two-fold and up to three-fold increase in target mRNA)

## N#CC1=C(N)Oc2c(ccc3ccccc23)C1c1cccc(C(F)(F)F)c1 (stereo not shown) [Cpd 6, 2-amino-4-(3-(trifluoromethyl)phenyl)-4H-benzo[h]chromene-3-carbonitrile]
mIGF1 mRNA
  mIGF1, fold increase compared to negative control: * (one star indicates less than one-fold increase in target mRNA)
ITGA7 mRNA
  ITGa7, fold increase compared to negative control: * (one star indicates less than one-fold increase in target mRNA)
UTRN mRNA
  UTRN, fold increase compared to negative control: ** (two stars indicate a greater than one-fold and up to two-fold increase in target mRNA)

## CCCCOc1ccc(C(=O)NC(=S)Nc2cc(-c3nc4ccccc4s3)ccc2C)cc1 [Cpd 7, N-(5-(benzo[d]thiazol-2-yl)-2-methylphenylcarbamothioyl)-4-butoxybenzamide]
mIGF1 mRNA
  mIGF1, fold increase compared to negative control: *** (three stars indicate a greater than two-fold and up to three-fold increase in target mRNA)
ITGA7 mRNA
  ITGa7, fold increase compared to negative control: **** (four stars indicate a greater than three-fold and up to four-fold increase in target mRNA)
UTRN mRNA
  UTRN, fold increase compared to negative control: ** (two stars indicate a greater than one-fold and up to two-fold increase in target mRNA)

## COc1cccc2c1C(=O)c1c(O)c3c(c(O)c1C2=O)C[C@@](O)(C(=O)CO)C[C@@H]3O[C@H]1C[C@H](N)[C@H](O)[C@H](C)O1 [doxorubicin, Doxorubicin]
[1]
  CC50: 0.004 to 0.01 µM
[2]
  CC50: 0.07 to 0.3 µM

## gentamicin
Dystrophin [3]
  increase in dystrophin levels: 10-20%
Dystrophin [4]
  increase in expression of dystrophin: no increase
